# According to patent US9944618B2, “Inhibiting neurotransmitter reuptake” (Mayo Foundation for Medical Education and Research, priority 2013, dated 2018):
# Like-named read-outs stand apart in the source and are kept apart here.
# What was measured:
# CYP3A4 = CYP3A4 (Homo sapiens (Human), UniProt P08684); assay: Cytochrome P450 inhibition assay, recombinant CYP3A4 (BFC substrate); assay type: in vitro ADME; conditions: recombinant enzyme
# Description: Recombinant enzymes, 3A4 and 2D6, generated using the ABL yeast expression system were used. […] The assay mixture also included K2HPO4 (pH 7.4; conc. 0.1 M) and NADPH (conc. 1 mM). The incubation time was 30 minutes, and the reference inhibitor was A-naphthoflavone. For CYP2D6, the enzyme amount was 2 pmol per well, and the substrate (7-methoxy-4-(aminomethyl)-coumarin; MAMC) was used at 20 μM. The assay mixture also included K2HPO4 (pH 7.4; conc. 0.1 M) and NADPH (conc. 0.06 mM). The incubation time was 35 minutes, and the reference inhibitor was quinidine.
# Briefly, 0.6 μL of serially diluted compound was added to 75 μL water. 10 μL of diluted compound in water was then added to each assay plate. 20 μL of a K2HPO4, enzyme, and substrate mixture was added. After 10 minutes of room temperature pre-incubation, 10 μL of NADPH was added, and the plates were placed at 37° C. for 30 or 35 minutes depending on the enzyme being tested. After the incubation was complete, 20 μL of 0.1% Tris/ACN was added to the plate. The plate was read on a FluorStar fluorescence plate reader.
# [1] = molecular target: human dopamine transporter (Homo sapiens (Human), UniProt Q01959); assay: Human DAT (dopamine transporter) uptake assay; assay type: cell-based; conditions: read-out: hDAT Ki
# Description: This protocol was designed to measure inhibition of uptake by the human dopamine transporter. […] The Assay Buffer (AB) was 1×HBSS and 0.02 M HEPES.
# (§1) The HEK293F cells were transfected with the human dopamine transporter and frozen in 1 mL aliquots at about 1E+07 cells/mL. On the day of the experiment, the cells were removed from −80° C. or liquid nitrogen and thawed in a room temperature water bath. The cells were dilute to about 1-2E+06 with Freestyle medium. A 1 mL sample (1:2 dilution) was prepared, and the cells were counted. The cells were spun at 1100 rpm for 5 minutes, and the medium was aspirated off. The cells were resuspend in medium at 1.5E+06 cells/mL for about 60,000 cells per well. 40 μL of cells were dispensed per well in the Biocoat plates. The plates were spun at 1100 rpm for 1 minute to improve homogeneity of the cell layer and were incubated at 37° C. for a minimum of 3 hours.
# 12 μL of test compound (10 mM) in DMSO was added to the wells, and nomifensine was used as a control. […] The neurotransmitter transporter dye was prepared in AB prior to use.
# Due to the proprietary nature of the dye formulation, all dye concentrations were expressed as a percentage of the vendor-recommended dye reconstitution. Thus, the above calculations were valid when both [dye] and K1 were expressed in the same units (%). Compounds were tested in triplicate (n=3).
# [2] = molecular target: human serotonin transporter (Homo sapiens (Human), UniProt P31645); assay: Human SERT (serotonin transporter) uptake assay; assay type: cell-based; conditions: read-out: hSERT Ki
# Description: This protocol was designed to measure inhibition of uptake by the human serotonin transporter. […] The Assay Buffer (AB) was […] and 0.02 M HEPES.
# as §1, with “serotonin” for “dopamine”
# 12 μL of test compound (10 mM) in DMSO was added to the wells, and nomifensine was used as a control. Fluoxetine (final assay concentration of 10 μM) was used for background signal. The neurotransmitter transporter dye was prepared in AB prior to use.
# Due to the proprietary nature of the dye formulation, all dye concentrations were expressed as a percentage of the vendor-recommended dye reconstitution. Thus, the above calculations were valid when both [dye] and Km were expressed in the same units (%). Compounds were tested in triplicate (n=3).
# [3] = molecular target: human norepinephrine transporter (Homo sapiens (Human), UniProt P23975); assay: Human NET (norepinephrine transporter) uptake assay; assay type: cell-based; conditions: read-out: hNET Ki
# How it was run: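 HEK293F cells transfected with human NET were thawed, plated at about 60,000 cells/well and held at 37 °C for at least 3 h. Compounds came from 10 mM DMSO stocks, with nomifensine as control, in 1×HBSS/0.02 M HEPES. Uptake was followed with a neurotransmitter transporter dye, dosed as % of vendor reconstitution, in triplicate.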
# [4] = pKa of basic centres (Table 1); assay type: physicochemical
# CYP2D6 = CYP2D6 (Homo sapiens (Human), UniProt P10635); assay: Cytochrome P450 inhibition assay, recombinant CYP2D6 (MAMC substrate); assay type: in vitro ADME; conditions: recombinant enzyme
# [5] = first base, e.g., an aliphatic primary, secondary, or tertiary amine, read-out: pKa (Base 1)
# [6] = second base in the same molecule (if present), read-out: pKa (Base 2)
# Chain of CYP3A4 (P08684 whole entry): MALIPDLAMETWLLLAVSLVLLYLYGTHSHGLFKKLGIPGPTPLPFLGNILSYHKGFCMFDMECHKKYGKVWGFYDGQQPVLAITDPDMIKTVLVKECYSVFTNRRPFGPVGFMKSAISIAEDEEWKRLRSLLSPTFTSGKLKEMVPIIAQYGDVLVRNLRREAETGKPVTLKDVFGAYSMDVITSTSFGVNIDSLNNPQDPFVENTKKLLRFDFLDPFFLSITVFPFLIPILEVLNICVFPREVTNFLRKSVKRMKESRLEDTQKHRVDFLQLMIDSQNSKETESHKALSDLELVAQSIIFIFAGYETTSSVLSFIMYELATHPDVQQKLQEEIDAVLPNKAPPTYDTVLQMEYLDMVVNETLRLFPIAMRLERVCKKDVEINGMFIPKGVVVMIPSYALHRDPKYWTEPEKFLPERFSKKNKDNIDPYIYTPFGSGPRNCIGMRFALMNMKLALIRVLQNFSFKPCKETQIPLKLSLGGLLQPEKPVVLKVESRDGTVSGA
# Chain of human dopamine transporter (Q01959 whole entry): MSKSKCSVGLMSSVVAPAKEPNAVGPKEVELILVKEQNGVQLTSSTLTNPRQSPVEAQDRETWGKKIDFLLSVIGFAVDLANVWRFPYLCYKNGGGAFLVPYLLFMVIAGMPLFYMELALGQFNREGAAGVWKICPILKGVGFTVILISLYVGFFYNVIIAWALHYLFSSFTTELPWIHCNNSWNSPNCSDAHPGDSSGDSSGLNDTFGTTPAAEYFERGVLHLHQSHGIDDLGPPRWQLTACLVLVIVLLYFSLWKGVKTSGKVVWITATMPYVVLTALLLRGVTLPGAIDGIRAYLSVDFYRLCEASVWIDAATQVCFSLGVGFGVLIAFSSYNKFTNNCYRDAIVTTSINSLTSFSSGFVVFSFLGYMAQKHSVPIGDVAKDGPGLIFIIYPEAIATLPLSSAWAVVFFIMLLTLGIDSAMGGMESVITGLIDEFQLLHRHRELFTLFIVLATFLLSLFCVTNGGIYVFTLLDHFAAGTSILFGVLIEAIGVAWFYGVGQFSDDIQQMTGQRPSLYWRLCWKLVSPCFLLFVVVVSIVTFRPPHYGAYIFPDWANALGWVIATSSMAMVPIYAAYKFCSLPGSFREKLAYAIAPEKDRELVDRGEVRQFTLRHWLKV
# Chain of human serotonin transporter (P31645 whole entry): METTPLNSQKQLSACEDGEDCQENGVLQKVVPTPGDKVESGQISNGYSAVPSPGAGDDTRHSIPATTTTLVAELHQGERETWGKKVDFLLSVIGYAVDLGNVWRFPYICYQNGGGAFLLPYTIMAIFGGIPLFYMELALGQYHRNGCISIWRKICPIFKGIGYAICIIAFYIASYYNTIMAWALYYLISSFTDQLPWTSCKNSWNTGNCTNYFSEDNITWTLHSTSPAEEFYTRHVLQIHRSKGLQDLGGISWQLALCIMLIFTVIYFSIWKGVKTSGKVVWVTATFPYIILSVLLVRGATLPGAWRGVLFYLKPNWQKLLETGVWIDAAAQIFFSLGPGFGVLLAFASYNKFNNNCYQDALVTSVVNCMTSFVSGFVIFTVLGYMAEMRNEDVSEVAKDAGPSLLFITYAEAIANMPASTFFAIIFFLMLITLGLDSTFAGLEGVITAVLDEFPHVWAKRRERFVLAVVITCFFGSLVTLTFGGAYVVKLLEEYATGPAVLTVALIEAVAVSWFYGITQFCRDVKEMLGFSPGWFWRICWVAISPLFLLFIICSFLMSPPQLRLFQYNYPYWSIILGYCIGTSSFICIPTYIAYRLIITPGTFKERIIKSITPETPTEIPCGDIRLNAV
# Chain of human norepinephrine transporter (P23975 whole entry): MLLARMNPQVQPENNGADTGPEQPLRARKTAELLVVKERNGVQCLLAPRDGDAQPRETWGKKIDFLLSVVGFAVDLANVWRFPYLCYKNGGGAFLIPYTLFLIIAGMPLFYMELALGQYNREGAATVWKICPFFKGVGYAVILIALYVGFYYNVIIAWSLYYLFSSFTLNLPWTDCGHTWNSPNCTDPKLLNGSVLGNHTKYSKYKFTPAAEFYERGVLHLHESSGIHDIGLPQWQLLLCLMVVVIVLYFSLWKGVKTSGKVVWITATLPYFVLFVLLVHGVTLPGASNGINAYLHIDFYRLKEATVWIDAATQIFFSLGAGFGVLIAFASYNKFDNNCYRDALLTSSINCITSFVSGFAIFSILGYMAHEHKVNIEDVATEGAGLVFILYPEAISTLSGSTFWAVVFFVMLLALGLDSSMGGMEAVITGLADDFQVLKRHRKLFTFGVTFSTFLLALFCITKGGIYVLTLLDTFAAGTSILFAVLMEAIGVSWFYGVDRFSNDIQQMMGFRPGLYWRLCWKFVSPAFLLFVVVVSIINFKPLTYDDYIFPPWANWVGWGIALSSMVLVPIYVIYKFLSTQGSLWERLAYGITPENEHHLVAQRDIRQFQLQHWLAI
# Chain of CYP2D6 (P10635 whole entry): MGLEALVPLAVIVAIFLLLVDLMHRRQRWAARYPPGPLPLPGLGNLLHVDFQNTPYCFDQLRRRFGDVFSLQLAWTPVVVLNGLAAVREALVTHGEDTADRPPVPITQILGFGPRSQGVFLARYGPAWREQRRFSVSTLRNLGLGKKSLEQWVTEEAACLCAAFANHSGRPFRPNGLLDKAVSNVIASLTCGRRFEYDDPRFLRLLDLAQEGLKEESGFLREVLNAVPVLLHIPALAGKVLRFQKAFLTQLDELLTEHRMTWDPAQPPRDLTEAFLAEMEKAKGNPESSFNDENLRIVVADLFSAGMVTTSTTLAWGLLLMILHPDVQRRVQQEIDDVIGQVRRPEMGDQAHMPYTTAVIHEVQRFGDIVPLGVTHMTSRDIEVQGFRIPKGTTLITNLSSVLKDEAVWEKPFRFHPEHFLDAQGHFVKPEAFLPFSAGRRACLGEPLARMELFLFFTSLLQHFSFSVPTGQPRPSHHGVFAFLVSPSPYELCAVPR
Compound,IC50 (CYP3A4) [nM],Ki [1] [nM],Ki [2] [nM],Ki [3] [nM],"pKa [4, 5]","pKa [4, 6]",IC50 (CYP2D6) [nM],"pKa (Base 1) ([4]; first base, e.g., an aliphatic primary, secondary, or tertiary amine)",pKa (Base 2) ([4]; second base in the same molecule (if present))
CNC[C@@H](c1ccc2ccccc2c1)[C@@H](OCC(N)=O)c1ccccc1 [Compound 117],20000,12.9,796,236,9.6,,5500,,
CNC[C@@H](c1ccc2ccccc2c1)[C@@H](O)c1cccnc1 [Compound 103],20000,91.9,58.6,57.6,,,11000,9.6,5.1
CN(C)C[C@H](c1ccc(Cl)c(Cl)c1)[C@H](O)c1ccccc1 (racemic) [Compound 105],≥ 20000,18.1,138,64.6,8.8,,2100,,
CNC[C@H](c1ccc(Cl)c(Cl)c1)[C@H](O)c1cccc([N+](=O)[O-])c1 [Compound 102],5700,29.3,86.2,55.2,9.3,,120,,
CCc1cccc([C@@H](O)[C@H](CNC)c2ccc(Cl)c(Cl)c2)c1 [Compound 159],2500,55.8,69.5,55.4,9.4,,170,,
CNC[C@H](c1ccc(Cl)c(Cl)c1)[C@H](O)c1cccc(S(C)(=O)=O)c1 [Compound 101],20000,73,2740,54.4,9.3,,3500,,
CN1C[C@H](c2ccc3ccccc3c2)[C@@H](c2ccccc2)OCC1=O [Compound 129],20000,43.5,3370,3670,,,20000,,
CNCC(c1ccc2ccccc2c1)[C@@H](O)c1ccc(Cl)nc1 (stereo partly drawn) [Compound 169],20000,146,268,212,9.6,,1300,,

# Further compounds by falling IC50 (CYP3A4), results first:
IC50 (CYP3A4) [nM],Ki [1] [nM],Ki [2] [nM],Ki [3] [nM],"pKa [4, 5]","pKa [4, 6]",IC50 (CYP2D6) [nM],Compound,"pKa (Base 1) ([4]; first base, e.g., an aliphatic primary, secondary, or tertiary amine)",pKa (Base 2) ([4]; second base in the same molecule (if present))
20000,95.3,208,13.8,9.6,,660,CNC[C@@H](c1ccc2ccccc2c1)[C@H](O)c1cc(F)cc(F)c1 [Compound 142],,
20000,66.7,646,120,9.3,4.5,1100,CNC[C@@H](c1ccc(Cl)c(Cl)c1)[C@@H](O)c1cncc(OC)c1 [Compound 109],,
20000,1630,1.8,4.6,10,,810,CNC[C@H](c1ccc(OC)c(C)c1)[C@H](O)c1cccnc1 [Compound 55],,
20000,91.9,296,32.6,9.6,,370,CNC[C@H](c1ccc2ccccc2c1)[C@@H](O)c1cc(F)cc(F)c1 [Compound 141],,
8300,78.2,853,6.7,9.4,4.3,2800,CNC[C@H](c1ccc(Cl)c(Cl)c1)[C@@H](O)c1cccc(N)c1 [Compound 63],,
4900,110,806,108,9.4,,790,CNC[C@@H](c1ccc(Cl)c(Cl)c1)[C@@H](O)c1cccc(Br)c1 [Compound 162],,
270,94.6,656,60.6,9.2,3.2,66,CNC[C@H](c1ccc(Cl)c(Cl)c1)[C@@H](O)c1cccnc1OC [Compound 104],,
